Measured values reported in patent US20220023337A1, “USE OF CHROMIUM HISTIDINATE FOR TREATMENT OF CARDIOMETABOLIC DISORDERS” (NUTRITION 21, LLC, priority 2007, published 2022).
Like-named read-outs stand apart in the source and are kept apart here.

Legend:
rats = settings: cited from earlier work
subject having impotence = test: Example 6: treatment of sexual dysfunction; format: in vivo; settings: about 50-5000 μg daily, orally
Method: A subject is identified as having impotence. The subject is orally administered between about 50 μg and 5000 μg chromium trihistidinate daily.

[1] = test system: subject with compromised renal function; test: Example 10: treatment of renal disorders; format: in vivo; settings: between 50 μg and 5000 μg daily
Method: A subject is identified with compromised renal function. […] The subject is administered an effective amount of chromium trihistidinate daily, e.g. between 50 μg and 5000 μg chromium trihistidinate daily. After a period of time, the subject's renal function improves.

[2] = rats, NSAID co-administered; cited from earlier work
[3] = cited from earlier work
diabetic rats = test: Glucose and lipid metabolism in high fat diet/streptozotocin diabetic rats (groups 5 and 6); format: in vivo, Wistar rats; settings: high-fat diet + STZ 40 mg/kg i.p. rats, 110-mcg/kg body.d in water, 10 weeks
Method: (§1) Wistar rats were reared at the temperature of (22±2° C.), humidity (55±5%) and a 12/12 h light/dark cycle. Pellet food and water were provided ad libitum.
(§2) Fat-fed/STZ treated rats provide an animal model for type 2 diabetes that simulates the human syndrome, and is suitable for the testing of antidiabetic compounds (See, e.g., Reed et al. (2000) Metabolism 49(11):1390-1394). Rats fed a high fat diet can be used as a model system for insulin resistance. Ten Wistar rats (55 days old) in each group were treated as follows:
Group 5: Rats were fed high-fat diet (40% of calories as fat) for 2 weeks and then injected with streptozotocin (STZ, 40 mg/kg i.p.) for 12 weeks.
Group 6: Rats were fed high-fat diet (40% of calories as fat) for 2 weeks and then injected with streptozotocin (STZ, 40 mg/kg i.p.) and chromium histidinate was included into water at a concentration of 110-mcg/kg body.d for 10 weeks.
Before STZ injection glucose concentrations of rats were measured and compared to controls.

[4] = test system: subject having cardiometabolic syndrome; test: Example 3: treatment of cardiometabolic syndrome; format: in vivo; settings: between 50 μg and 5000 μg/day, orally
Method: A subject is identified as having cardiometabolic syndrome. The subject presents with one or more symptoms associated with cardiometabolic syndrome such as obesity, hypertension, dyslipidemia, impaired glucose tolerance, diabetes, an increase in C-reactive protein, and increase in TNFα, an increase in IL-6, an increase in IL-10, or an increase in oxidative stress.
The individual is administered between 50 μg and 5000 μg chromium histidinate complex/day, orally. The chromium histidinate is administered orally.

Hep G2 cells [5] = test: Triglyceride secretion into culture media by HepG2 cells; format: cell-based, human; settings: 0.2 μM, in the presence of insulin; p<0.05 vs control
Method: (§3) Hep G2 cells are liver cells derived from a human hepatoblastoma that is free of known hepatotropic viral agents. This cell line expresses a wide variety of liver-specific metabolic functions and is used as a model system to study cholesterol and triglyceride metabolism. The effects of chromium histidinate on triglyceride secretion and on media glucose levels, the HepG2 cell line was grown in culture media with or without insulin in the presence of 0, 0.2, 2, or 20 μM chromium histidinate. Media glucose levels and triglyceride levels were measured using standard protocols. Specifically, triglyceride levels were measured spectrophotometrically through hydrolysis by lipase and coupled enzyme reactions on the resulting glycerol. Glucose levels were measured spectrophotometrically using the glucose oxidase method, with a standard dilution curve serving to calibrate the measurements.

[6] = test system: subject with cardiovascular disease; test: Example 8: treatment of cardiovascular disease; format: in vivo; settings: about 50-5000 μg daily
Method: (§4) A subject is identified with cardiovascular disease. […] The subject is provided between about 50 μg and 5000 μg chromium histidinate daily. After a period of time, the subject's arteriosclerosis, atherosclerosis, peripheral vascular disease, or coronary heart disease improves.

normal rats = test: Glucose and lipid metabolism in normal rats fed standard diet (groups 1 and 2); settings: standard diet + chromium histidinate 12 weeks
Method: as §1, §2
Group 1: Control rats were fed standard diet (12% of calories as fat) for 12 weeks.
Group 2: Control rats were fed standard diet+chromium histidinate for 12 weeks.

Hep G2 cells [7] = test: Media glucose levels of HepG2 cell cultures; format: cell-based, human; settings: 0.2 μM, in the absence of insulin; p<0.05 vs control
Method: as §3

insulin resistant rats = test: Glucose and lipid metabolism in insulin resistant rats fed high fat diet (groups 3 and 4); format: in vivo, Wistar rats; settings: approx. 110 mcg/kg body.d in water, 12 weeks
Method: as §1, §2
Group 3: Rats were fed high fat diet (40% of calories as fat) for 12 weeks.
Group 4: Rats were fed high-fat diet (40% of calories as fat) and chromium histidinate (approx. 110 mcg/kg body.d) was included into water for 12 weeks.

[8] = test system: subject having a dyslipidemia; test: Example 14: treatment of dyslipidemia; format: in vivo; settings: about 50-5000 μg daily, orally; one or more of the listed changes
Method: A subject is identified as having a dyslipidemia. […] The subject is administered between about 50 μg and 5000 μg chromium histidinate daily, orally.

[9] = test system: subject with cardiovascular disease; test: Example 9: treatment of cardiovascular disease with combination therapy; format: in vivo; settings: about 50-5000 μg daily plus a second therapeutic for cardiovascular disease
Method: as §4, with “daily. The subject is also provided a therapeutically effective amount of a second therapeutic for cardiovascular disease such as peripheral antiadrenergic therapy, antihypertensive drugs, vasodilators, inodilators, cardiac glycosides, antidysrhythmic drugs.” for “daily.”

[10] = test system: subject with a PPAR associated disorder; test: Example 13: treatment of PPAR disorders; format: in vivo; settings: about 50-5000 μg, orally, daily
Method: A subject is identified with a PPAR associated disorder. The subject has one or more of the following symptoms or conditions: rheumatoid arthritis, multiple sclerosis, inflammatory bowel disease, breast, colon, or prostate cancer, low levels of blood, lymph and/or cerebrospinal fluid apoE and/or apo A-1, elevated serum VLDL cholesterol levels, elevated serum LDL cholesterol levels, elevated triglyceride levels, elevated serum apo B levels, or the like. The subject is administered between about 50 μg and 5000 μg chromium histidinate, orally, daily. After a period of time, the subject's symptoms improve.

[11] = test system: subject with diabetes or hyperglycemia; test: Example 11: treatment of glucose metabolism disorders; format: in vivo; settings: about 50-5000 μg daily, orally
Method: A subject is identified with one or more glucose metabolism disorders such as diabetes or hyperglycemia. The subject is orally administered between about 50 μg and 5000 μg chromium polyhistidinate daily.

[12] = test system: subject having insulin resistance; test: Example 5: treatment of insulin resistance; format: in vivo; settings: about 50-5000 μg daily, orally, in the form of a bar
Method: A subject is identified as having insulin resistance. […] The subject is administered between about 50 μg and 5000 μg chromium polyhistidinate daily, orally, in the form of a bar.

For `[Cl][Cr]([Cl])[Cl]` [chromium chloride], the toxic effects (rats; rats, levels several thousand times the upper limit of the ESADDI for chromium for humans (based on body weight)) is given as “without toxic effects”.
In the case of chromium picolinate, the toxic effects (rats; rat, in vivo) is given as “without toxic effects”.
In the case of chromium trihistidinate, the sexual function (subject having impotence) is reported as “improved” and the renal function [1] is reported as “improves”.
In the case of `CC(=O)Oc1ccccc1C(=O)O` [aspirin], the “chromium absorption following oral administration of CrCl3” value [2] is listed as “facilitated”.
For `N[C@@H](Cc1c[nH]cn1)C(=O)O` [histidine], the pKa [3] is listed as about 6.0.
For chromium histidinate, the body weight (diabetic rats) was “significantly lowers”, the cortisol levels (diabetic rats) was “decreases” and the “free fatty acid levels” value (diabetic rats) was “decreases”. For the same compound, the insulin levels (diabetic rats) was “increases”, the insulin sensitivity (diabetic rats) was “increases” and the serum glucose levels (diabetic rats) was “lowers”. The “total serum cholesterol levels” value (diabetic rats) was “decreases”, the triglyceride levels (diabetic rats) was “decreases” and the “symptoms associated with cardiometabolic syndrome” value [4] was “reduction in one or more of the symptoms”. The “triacylglycerol (triglycerides secreted into culture media)” value (Hep G2 cells [5]) was “significantly decreased”, the “arteriosclerosis, atherosclerosis, peripheral vascular disease, or coronary heart disease” value [6] was “improves” and the “free fatty acid levels” value (normal rats) was “decreases”. For the same compound, the insulin levels (normal rats) was “increases”, the insulin sensitivity (normal rats) was “increases” and the serum chromium levels (normal rats) was “increases”. For the same compound, the serum glucose levels (normal rats) was “lowers”, the serum triglyceride levels (normal rats) was “decreases” and the “total serum cholesterol levels” value (normal rats) was “decreases”. For the same compound, the “glucose in the media” value (Hep G2 cells [7]) was “significant decrease”, the body weight (insulin resistant rats) was “significantly lowers” and the cortisol levels (insulin resistant rats) was “decreases”. The “free fatty acid levels” value (insulin resistant rats) was “decreases”, the insulin levels (insulin resistant rats) was “increases” and the insulin sensitivity (insulin resistant rats) was “increases”. For the same compound, the serum glucose levels (insulin resistant rats) was “lowers”, the “total serum cholesterol levels” value (insulin resistant rats) was “decreases” and the triglyceride levels (insulin resistant rats) was “decreases”. For the same compound, the “serum HDL cholesterol levels” value [8] was “increased”, the “serum LDL cholesterol levels” value [8] was “decreased” and the serum triglyceride levels [8] was “decreased”. The “total serum cholesterol levels” value [8] was “decreased”, the “arteriosclerosis, atherosclerosis, peripheral vascular disease, or coronary heart disease” value [9] was “improves” and the “symptoms of PPAR associated disorder” value [10] was “improve”.
For chromium polyhistidinate, the “fasting and/or post-prandial glucose levels” value [11] was “improvement”, the hyperinsulinemia [12] was “decreased” and the insulin function [12] was “improved”.
